# Source: patent US11542295B2, “Use of 20-hydroxyecdysone and the derivatives thereof in the treatment of myopathies” (BIOPHYTIS, priority 2017, dated 2023)
# Legend:
# [1] = system: myh7 (beta myosin heavy chain); experiment: Heart mRNA expression of hypertrophy marker myh7 (semi-quantitative PCR); assay type: in vivo, mouse; conditions: mdx mice, 50 mg/kg*day, two months; p<0.01
# Experimental: Twelve-week-old […] gene pool (wild mice referred to as “C57” in the figures) and […] mdx (mouse model of Duchenne muscular dystrophy, referred to as “mdx” in the figures) male mice, produced at Charles Rivers, were used. Two groups of mdx were chronically exposed per os either to BIO101 (number of mice n=9) or to BIO103 (number of mice n=9) at a dose of 50 mg/kg*day. A group of C57 mice (number of mice n=5) and a group of mdx mice (number of mice n=15) received the vehicle, i.e. no treatment. The animals of all of the groups were tested for their functional capacity (exertion tolerance test) after two months of treatment. The exertion tolerance test consists of measuring the maximum distance travelled (in-toto activity; FIGS. 1A and 1B). […] The extract RNA is quantified by spectrophotometry then the quality thereof is verified and validated with the Experion RNA StdSens Analysis Kit (Bio-Rad). […] Finally, semi-quantitative PCR analysis was carried out using SYBR® Green (Roche), a DNA intercalating agent and a LightCycler® 480 Real Time PCR (Roche) apparatus on 384-well plates. The molecular markers measured are as follows: • CTGF and collagen I: connective tissue growth factor (CTGF) is associated with healing and with many pathological fibrotic processes including DMD (Brigstock 2010; Song Y. 2017). […]
# ERK1/2 = ERK1/2 phosphorylation in human DMD myocytes (Western Blot); assay type: cell-based; conditions: 10 μM, 10 minutes to 24 hours, vs untreated control
# Experimental: (§1) Human DMD skeletal muscle cells (KM571DMD1OFL Cl1) were differentiated for 5 days then optionally incubated with BIO101 at 10 μM for periods of between 10 minutes and 24 hours.
# (§2) A densitometric analysis of results of at least 6 independent Western Blot experiments described the effects of BIO101 on the phosphorylation of AKT (FIG. 8A) and ERK1/2 (FIG. 8B) is shown, *p<0.05 versus the untreated control.
# [2] = system: tibialis anterior muscle of C57BL10 mdx mice; experiment: Skeletal muscle vascularisation (number of vessels per muscle fibre, anti-laminin / anti-CD31 labelling); assay type: in vivo, mouse; conditions: 50 mg/kg*day per os, two months of daily exposure
# Experimental: A quantitative vascularisation study was carried out on sections of tibialis anterior muscle (abbreviated as TA) of healthy C57 mice as well as on mdx mice treated with the vehicle and mdx mice treated with BIO101 or BIO103. Double immunofluorescence labelling is carried out, anti-laminin labelling with the function of identifying the basal membrane of the muscle fibres and anti-CD31 labelling having the function of identifying the vessel. The number of vessels per muscle fibre is quantified. The mdx animals received daily, per os, either the vehicle or BIO101 (50 mg/kg*day) or BIO103 (50 mg/kg*day).
# [3] = system: Human DMD skeletal muscle cells (KM571DMD1OFL Cl1); experiment: Cellular respiration (oxygen consumption rate, Seahorse XF Analyzer); assay type: cell-based; conditions: two days of treatment
# Experimental: Human DMD skeletal muscle cells (KM571DMD1OFL Cl1) were differentiated for 4 days, then incubated in the presence or absence of BIO101 (1 or 5 μM) for 2 days. The oxygen consumption rate, also known as OCR, which reflects the mitochondrial respiration of the cells was measured using a Seahorse XF Analyzer (registered trademark, Agilent).
# The basal respiration is measured directly whereas the maximum respiration is measured after adding oligomycin followed by FCCP (FIG. 9A and FIG. 9B). The results are referenced to the OCR of the untreated cells and are shown in the form of means plus or minus the standard error (SEM).
# AKT = AKT phosphorylation in human DMD myocytes (Western Blot); assay type: cell-based; conditions: 10 μM, 10 minutes to 24 hours, vs untreated control
# Experimental: as §1, §2
# [4] = system: tibialis anterior muscle of C57BL10 mdx mice; experiment: Histological study of tibialis anterior muscle stained with Sirius Red (fibrotic area); assay type: in vivo, mouse; conditions: 50 mg/kg*day, two months, p=0.0709
# Experimental: Twelve-week-old C57BL10 gene pool (wild mice referred to as “C57” in the figures) and C57BL10 mdx (mouse model of Duchenne muscular dystrophy, referred to as “mdx” in the figures) male mice, produced at Charles Rivers, were used. Two groups of mdx were chronically exposed per os either to BIO101 (number of mice n=9) or to BIO103 (number of mice n=9) at a dose of 50 mg/kg*day. A group of C57 mice (number of mice n=5) and a group of mdx mice (number of mice n=15) received the vehicle, i.e. no treatment. The animals of all of the groups were tested for their functional capacity (exertion tolerance test) after two months of treatment. The exertion tolerance test consists of measuring the maximum distance travelled (in-toto activity; FIGS. 1A and 1B). Furthermore, measurements of the maximum absolute isometric strength of the tibialis anterior muscle (in-situ activity; FIGS. 2A and 2B) were made after two months of treatment.
# An assessment of muscle fibrosis by histological study is carried out on the tibialis anterior muscle (abbreviated as TA). Histological sections (7 μm) are produced and stained either with haematoxylin eosin (HE) or with Sirius Red (SR).
# An anatomopathological analysis of the sections of tibialis anterior muscle stained with SR makes it possible to quantify the fibrotic area. […]
Structure (SMILES),expression of myh7 in heart compared to mdx animals receiving the vehicle [1],p-ERK1/2 (phosphorylation of ERK1/2) (ERK1/2),increase of the number of vessels per muscle fibre compared to untreated mdx animals (vehicle) [2] [%],"basal respiration increase (OCR) vs untreated cells ([3]; 1 μM, p<0.01) [%]","maximum respiration increase (OCR after oligomycin and FCCP) vs untreated cells ([3]; 1 μM, p<0.05) [%]","maximum respiration increase (OCR after oligomycin and FCCP) vs untreated cells ([3]; 5 μM, p =0.13) [%]","basal respiration increase (OCR) vs untreated cells ([3]; 5 μM, p<0.001) [%]",p-AKT (phosphorylation of AKT) (AKT),onset of fibrosis (percentage area corresponding to fibrosis) compared to the control mdx group [4]
"CC(C)(O)CC[C@@H](O)[C@](C)(O)[C@H]1CC[C@@]2(O)C3=CC(=O)[C@@H]4C[C@@H](O)[C@@H](O)C[C@]4(C)[C@H]3CC[C@]12C [BIO101, 20-hydroxyecdysone]",significantly reduces,significant increase,14.1,20,51,22,21,significant increase,
"CCSCC(=O)[C@H]1CC[C@@]2(O)C3=CC(=O)[C@@H]4C[C@@H](O)[C@@H](O)C[C@]4(C)C3CC[C@]12C (stereo partly drawn) [BIO103, (2S,3R,5R,10R,13R,14S,17S)-17-(2-ethylsulfanylacetyl)-2,3,14-trihydroxy-10,13-dimethyl-2,3,4,5,9,11,12,15,16,17-decahydro-1H-cyclopenta[a]phenanthren-6-one]",significantly reduces,,28.2,,,,,,clearly tends to prevent
